In patent US20110160123A1, “TARGETING THE EFFLUX SYSTEMS OF MYCOBACTERIUM TUBERCULOSIS” (THE UAB RESEARCH FOUNDATION, priority 2008, published 2011):
Converted amounts (≈) assume the structure as drawn. Where two headings read alike, the source gives them in different places.

Columns and labels:
[1] = system: M. smegmatis overexpressing the rv0194 gene of M. tuberculosis (SMR5/pML655); assay: microbe, parasite or virus in culture; type: cell-based; details: for MIC: Mycolicibacterium smegmatis
[2] = system: Mtb mctB mutant ML256; design: species or system mice; details: mouse, in vivo
[3] = system: M. tuberculosis mctB mutant ML256 (Δrv1698); type: cell-based
[4] = system: M. bovis BCG ML1034 mutant (bcg0231/rv0194 overexpressed); type: cell-based
[5] = system: M. bovis BCG transposon mutants; type: cell-based
[6] = read-out: MIC rv0194 overexpression

SMILES | Resistance Factor [1] | MIC [1, 6] [mg/mL] | MIC ML1034 [4] [mg/mL] | Resistance Factor [4] | further results
CO[C@@H]1[C@@H](OC(N)=O)[C@@H](O)[C@H](Oc2ccc3c(O)c(NC(=O)c4ccc(O)c(CC=C(C)C)c4)c(=O)oc3c2C)OC1(C)C [Novobiocin] | 2 | 0.008 (≈ 13.1 µM) | – | – | –
O=S(=O)([O-])[O-].[Cu+2] [CuSO4] | – | – | – | – | effect of dietary CuSO4 on persistence of the mctB mutant in lungs [2]: aggravated the persistence defect; growth rate on plates with CuSO4 [3]: severely reduced the growth rate
[H]/N=C(/N)N[C@H]1[C@H](O)[C@@H](O)[C@H](O[C@@H]2O[C@@H](C)[C@](O)(C=O)[C@H]2O[C@@H]2O[C@@H](CO)[C@H](O)[C@@H](O)[C@@H]2NC)[C@@H](N/C(N)=N\[H])[C@@H]1O [Streptomycin] | – | – | 0.016 (≈ 27.5 µM) | 32 | –
CC1(C)S[C@@H]2[C@H](NC(=O)[C@H](N)c3ccccc3)C(=O)N2[C@H]1C(=O)O [Ampicillin] | 2 | 0.25 (≈ 715 µM) | – | 32 | MIC of amp. [4]: 2000 mg/mL; MIC of ampicillin, completely resistant mutants [5]: ≥ 2,000 μg/ml; MIC of ampicillin, mutants excluded from further analysis [5]: lower than 250 μg/ml; MICs of ampicillin for all transposon mutants [5]: higher than 62.5 μg/ml
O=C(N[C@H](CO)[C@H](O)c1ccc([N+](=O)[O-])cc1)C(Cl)Cl [Chloramphenicol] | 1 | 0.032 (≈ 99 µM) | 0.512 (≈ 1580 µM) | 64 | –
Cc1cc(-c2ccc(S(=O)(=O)O)cc2)c2ccc3c(-c4ccc(S(=O)(=O)O)cc4)cc(C)nc3c2n1 [Bathocuproine disulfonate] | – | – | – | – | protection from the toxic effects of CuSO4 [3]: protects Mtb from the toxic effects of CuSO4
CN[C@H](CC(C)C)C(=O)N[C@H]1C(=O)N[C@@H](CC(N)=O)C(=O)N[C@H]2C(=O)N[C@H]3C(=O)N[C@H](C(=O)N[C@H](C(=O)O)c4cc(O)cc(O)c4-c4cc3ccc4O)[C@H](O)c3ccc(c(Cl)c3)Oc3cc2cc(c3O[C@@H]2O[C@H](CO)[C@@H](O)[C@H](O)[C@H]2O[C@H]2C[C@](C)(N)[C@H](O)[C@H](C)O2)Oc2ccc(cc2Cl)[C@H]1O [Vancomycin] | 2 | 0.0025 (≈ 1.73 µM) | 0.02 (≈ 13.8 µM) | – | –
CN(C)[C@@H]1C(=O)C(C(N)=O)=C(O)[C@@]2(O)C(=O)C3=C(O)c4c(O)cccc4[C@@](C)(O)[C@H]3C[C@@H]12 [Tetracyclin] | 1 | – | >0.016 | – | MIC rv0194 overexpression [1]: 0.0003 mg/mL (≈ 0.675 µM)
CC[n+]1c(-c2ccccc2)c2cc(N)ccc2c2ccc(N)cc21 [ethidium bromide] | – | – | – | – | MIC ([1]; read-out: MIC of ethidium bromide): 0.0025 mg/mL
CC[C@H]1OC(=O)[C@H](C)[C@@H](O[C@H]2C[C@@](C)(OC)[C@@H](O)[C@H](C)O2)[C@H](C)[C@@H](O[C@@H]2O[C@H](C)C[C@H](N(C)C)[C@H]2O)[C@](C)(O)C[C@@H](C)C(=O)[C@H](C)[C@@H](O)[C@]1(C)O [Erythromycin] | 4 | 0.01 (≈ 13.6 µM) | – | – | –
